From PMC9598407, “Identification of Staphylococcus aureus Penicillin Binding Protein 4 (PBP4) Inhibitors” (Antibiotics, 2022)
≈ marks a conversion by molar mass, not a printed value.

Tests used:
[1] = tested on: S. aureus USA300∆pbp4; assay: MIC testing, strain USA300∆pbp4; assay type: cell-based, Staphylococcus aureus; conditions: Staphylococcus aureus, USA300, read-out: Minimum inhibitory concentration
Description: (§1) The approach used was to initially search for compounds that reverse the antibiotic resistance profile of wild type cells to that of a pbp4 mutant. To define screening conditions three strains were employed, a wild type USA300 MRSA strain, an isogenic pbp4 deletion strain, and a complemented strain harboring a plasmid wildtype pbp4 copy. The antibiotic susceptibility profile of each strain was measured to determine the magnitude with which PBP4 affects resistance to various antibiotics (Table 1). […]. We anticipated that the greater dynamic range of the latter could provide a means to reliably screen for agents that inhibit PBP4 function. […].
(§2) S. aureus strain USA300 is a predominant cause of U.S. community-associated MRSA infections, whereas strain COL is a commonly studied hospital-associated MRSA strain. The S. aureus USA300 pbp4-null strain (USA300Δpbp4) and PBP4 complementation strain (USA300∆pbp4 pPBP4) have been previously described. Strain COLn is a laboratory derived tetracycline susceptible derivative of COL, whereas COLnex is a methicillin susceptible COLn derivative that has been cured of SCCmec thereby removing the mecA, which encodes PBP2a, and has been previously described. Strain CRB is a well-studied MRSA COLnex derivative that contains two amino acid substitutions (E183A and F241R) near the PBP4 active site and a 36-bp duplication 290-bp upstream of the pbp4 open reading frame leading to 20–40-fold overexpression of the gene. All strains were grown in Mueller Hinton (MH) broth at 37 °C, as indicated. Penicillin, streptomycin, ciprofloxacin, mupirocin, meropenem, and mitomycin C were purchased from Fisher Scientific (Waltham, MA, USA), whereas ceftobiprole was obtained from MedChemExpress LLC (Monmouth Junction, NJ, USA). The 30,000-member […]-EXP small molecule chemical library (Blocks 3–5) used in these studies was purchased from ChemBridge Corporation (San Diego, CA, USA).

[2] = tested on: S. aureus COLnex; assay: MIC testing, strain COLnex; assay type: cell-based; conditions: Staphylococcus aureus, read-out: Minimum inhibitory concentration
Description: (§3) To further evaluate their potential PBP4 inhibitor activity, prioritized compounds were tested for their ability to reverse PBP4 mediated antibiotic resistance in another S. aureus background using three isogenic strains that became available during our study (generous gift from Dr. S. Chatterjee; University of Maryland). These strains included: (1) COLnex, which is a methicillin susceptible strain, (2) CRB, a methicillin/ceftobiprole-resistant strain of COLnex that overproduces PBP4, and (3) CRB∆pbp4, a methicillin susceptible strain of CRB lacking the pbp4 gene.
as §2

[3] = tested on: S. aureus USA300∆pbp4 pPBP4; assay: microbe, parasite or virus in culture; assay type: cell-based; conditions: Staphylococcus aureus, USA300, read-out: Minimum inhibitory concentration
[4] = tested on: S. aureus CRB; assay: MIC testing, strain CRB (PBP4 overproducer); assay type: cell-based, Staphylococcus aureus; conditions: for MIC: Staphylococcus aureus, read-out: Minimum inhibitory concentration, strain CRB
Description: as §3, §2

[5] = tested on: S. aureus strain CRB∆pbp4; assay: Fractional inhibitory concentration checkerboard, ceftobiprole + putative PBP4 inhibitor, strain CRB∆pbp4; assay type: cell-based, Staphylococcus aureus; conditions: Staphylococcus aureus, read-out: CRB∆pbp4 Alone BPR (ceftobiprole MIC alone)
[6] = tested on: S. aureus CRB∆pbp4; assay: MIC testing, strain CRB∆pbp4; assay type: cell-based; conditions: Staphylococcus aureus, read-out: Minimum inhibitory concentration
Description: as §3, §2

[7] = tested on: S. aureus strain USA300; assay: microbe, parasite or virus in culture; assay type: cell-based; conditions: Staphylococcus aureus, USA300, read-out: Ceftobiprole resistance (MIC) without compound
Description: (§4) Fractional inhibitory testing was performed in checkerboard format to determine whether putative PBP4 inhibitors potentiated the antimicrobial effects of β-lactams toward S. aureus strains USA300 and CRB, as previously described. To do so, in triplicate 10^5 CFU of each strain (10 µL) was added to individual wells of a microtiter plate containing 90 µL MH media. […] Plates were incubated at 37 °C for 16–20 h and the lowest concentration of each test agent that inhibited bacterial growth alone or in combination was determined by the naked eye. The fractional inhibitory concentration (FIC) index was calculated using the formula: FIC of A (MIC of drug A in combination/MIC of drug A alone) + FIC B ([…]/MIC of drug B alone). A synergistic interaction was defined as a FICI value of less than 0.5, an additive interaction was defined as a FICI value between 0.5 and 1.0, an indifferent interaction was defined as a FICI value between 1.0 and 4.0, and an antagonistic interaction was defined as a FICI value of more than 4.0 [46].

[8] = tested on: S. aureus strain CRB; assay: Fractional inhibitory concentration checkerboard, ceftobiprole + putative PBP4 inhibitor, strain CRB; assay type: cell-based, Staphylococcus aureus; conditions: Staphylococcus aureus, read-out: CRB Alone BPR (ceftobiprole MIC alone)
Description: as §4

[9] = tested on: S. aureus USA300; assay: Minimum inhibitory concentration (MIC) testing, strain USA300; assay type: cell-based, Staphylococcus aureus; conditions: Staphylococcus aureus, USA300, read-out: Minimum inhibitory concentration
Description: as §1, §2

Row | SMILES | MIC [1] [µg/mL] | MIC [2] [µg/mL] | MIC [3] [µg/mL] | Fold difference in ceftobiprole resistance ([4]; PBP4-overexpressor CRB versus CRB∆pbp4) [fold] | MIC [4] [µg/mL] | MIC [5] [µg/mL] | MIC [6] [µg/mL] | MIC [7] [µg/mL] | MIC [8] [µg/mL] | MIC [9] [µg/mL]
1 | Nc1nc(/C(=N/O)C(=O)N[C@@H]2C(=O)N3C(C(=O)O)=C(/C=C4\CCN([C@@H]5CCNC5)C4=O)CS[C@H]23)ns1 [BPR, ceftobiprole] | 0.25 (≈ 0.468 µM) | 0.25 (≈ 0.468 µM) | 0.5 (≈ 0.935 µM) | 512 | 128 (≈ 239 µM) | 0.25 | 0.25 (≈ 0.468 µM) | 1 | 128 | 0.5 (≈ 0.935 µM)
2 | NC[C@H]1O[C@H](O[C@H]2[C@H](O)[C@@H](O[C@H]3O[C@H](CO)[C@@H](O)[C@H](N)[C@H]3O)[C@H](N)C[C@@H]2N)[C@H](N)C[C@@H]1O [TOB, tobramycin] | 1 (≈ 2.14 µM) | 0.06 (≈ 0.128 µM) | 1 (≈ 2.14 µM) |  | 0.06 (≈ 0.128 µM) |  | 0.06 (≈ 0.128 µM) |  |  | 1 (≈ 2.14 µM)
